The NIST ThermoML archive (doi:10.1016/j.fluid.2009.07.002)

Experiment: xn = mol fraction of the nth substance listed
Details: 101 kPa, Liquid, Taylor dispersion method

OCCOCCO [diethylene glycol] + O
binary diffusion coefficient [m2/s]
Details | 303.2 K | 308.2 K | 313.2 K | 318.2 K | 323.2 K
x1 = 0 | 1.04e-09 | 1.13e-09 | 1.25e-09 | 1.41e-09 | 1.53e-09
x1 = 0.2 | 4.69e-10 | 5.24e-10 | 6.02e-10 | 7.01e-10 | 7.83e-10
x1 = 0.4 | 3.18e-10 | 3.75e-10 | 4.45e-10 | 5.16e-10 | 5.71e-10
x1 = 0.6 | 2.82e-10 | 3.29e-10 | 3.93e-10 | 4.6e-10 | 5.37e-10
x1 = 0.8 | 2.56e-10 | 3.06e-10 | 3.72e-10 | 4.3e-10 | 5.03e-10

OCCOCCOCCO [triethylene glycol] + O
binary diffusion coefficient [m2/s]
Details | 303.2 K | 308.2 K | 313.2 K | 318.2 K | 323.2 K
x1 = 0 | 8.15e-10 | 8.99e-10 | 9.94e-10 | 1.07e-09 | 1.18e-09
x1 = 0.2 | 3.71e-10 | 4.3e-10 | 5.1e-10 | 5.48e-10 | 6.3e-10
x1 = 0.4 | 2.78e-10 | 3.12e-10 | 3.7e-10 | 4.27e-10 | 4.8e-10
x1 = 0.6 | 2.33e-10 | 2.7e-10 | 3.25e-10 | 3.79e-10 | 4.44e-10
x1 = 0.8 | 2.01e-10 | 2.41e-10 | 2.98e-10 | 3.51e-10 | 4.15e-10

OCCO [1,2-ethanediol] + O
binary diffusion coefficient [m2/s]
Details | 298.2 K | 303.2 K | 308.2 K | 313.2 K | 318.2 K | 323.2 K
x1 = 0 | 1.1e-09 | 1.24e-09 | 1.38e-09 | 1.51e-09 | 1.68e-09 | 1.86e-09
x1 = 0.2 | 6.95e-10 | 8.14e-10 | 8.89e-10 | 9.8e-10 | 1.09e-09 | 1.19e-09
x1 = 0.4 | 4.82e-10 | 5.28e-10 | 5.8e-10 | 6.31e-10 | 7.57e-10 | 8.48e-10
x1 = 0.6 | 3.81e-10 | 4.02e-10 | 4.51e-10 | 5.18e-10 | 6e-10 | 6.88e-10
x1 = 0.8 | 3.18e-10 | 3.34e-10 | 4.05e-10 | 4.68e-10 | 5.24e-10 | 6.03e-10
